Legend:
[1] = molecular target: T1, recombinant soluble guanylate cyclase (sGC), haem-containing (Rattus norvegicus, UniProt P20595); assay: Stimulation of recombinant soluble guanylate cyclase (sGC) in vitro, haem-containing enzyme; format: biochemical; settings: for Stimulation (x-times) of haem-containing sGC, Basal: n = 2
T1 construct: made in house
T1 sequence (P20595 1-619): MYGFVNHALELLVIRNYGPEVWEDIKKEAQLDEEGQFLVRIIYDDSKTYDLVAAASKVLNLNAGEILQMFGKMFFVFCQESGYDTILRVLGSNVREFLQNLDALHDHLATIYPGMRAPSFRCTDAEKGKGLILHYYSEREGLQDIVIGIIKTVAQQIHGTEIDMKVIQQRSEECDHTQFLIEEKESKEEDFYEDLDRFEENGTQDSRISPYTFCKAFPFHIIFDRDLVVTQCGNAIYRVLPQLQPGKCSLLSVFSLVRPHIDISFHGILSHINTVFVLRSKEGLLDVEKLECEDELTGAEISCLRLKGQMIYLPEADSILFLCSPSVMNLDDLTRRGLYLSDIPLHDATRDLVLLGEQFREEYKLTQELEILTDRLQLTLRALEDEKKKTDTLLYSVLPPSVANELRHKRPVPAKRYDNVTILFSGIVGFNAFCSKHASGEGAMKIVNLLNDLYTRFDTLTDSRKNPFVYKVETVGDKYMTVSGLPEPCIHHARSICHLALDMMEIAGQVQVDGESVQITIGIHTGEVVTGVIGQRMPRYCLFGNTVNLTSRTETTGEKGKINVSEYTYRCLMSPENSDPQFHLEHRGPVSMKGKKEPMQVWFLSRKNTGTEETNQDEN
T1 sequence (P19686 1-690 partner): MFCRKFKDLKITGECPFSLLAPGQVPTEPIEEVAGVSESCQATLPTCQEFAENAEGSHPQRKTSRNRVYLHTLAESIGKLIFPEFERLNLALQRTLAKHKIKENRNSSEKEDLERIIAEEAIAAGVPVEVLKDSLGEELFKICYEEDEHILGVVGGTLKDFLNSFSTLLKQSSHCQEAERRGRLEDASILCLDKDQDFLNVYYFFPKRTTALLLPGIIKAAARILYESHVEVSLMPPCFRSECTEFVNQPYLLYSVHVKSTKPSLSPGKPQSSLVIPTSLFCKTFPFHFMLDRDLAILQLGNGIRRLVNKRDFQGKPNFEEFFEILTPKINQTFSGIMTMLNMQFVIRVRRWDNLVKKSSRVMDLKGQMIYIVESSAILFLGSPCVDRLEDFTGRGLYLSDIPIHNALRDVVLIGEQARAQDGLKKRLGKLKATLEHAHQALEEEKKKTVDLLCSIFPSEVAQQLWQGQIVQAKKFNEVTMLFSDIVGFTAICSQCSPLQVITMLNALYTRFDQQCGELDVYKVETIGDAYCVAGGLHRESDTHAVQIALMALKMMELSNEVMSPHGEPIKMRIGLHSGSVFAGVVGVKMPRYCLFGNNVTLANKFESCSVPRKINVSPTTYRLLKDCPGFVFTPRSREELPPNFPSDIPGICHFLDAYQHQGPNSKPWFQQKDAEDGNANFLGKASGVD
Excerpt: (§1) B-1. Stimulation of Recombinant Soluble Guanylate Cyclase (sGC) In Vitro
Hoenicka, E. M. Becker, H. Apeler, T. Sirichoke, H. Schroeder, R. Gerzer and J.-P. Stasch, “Purified soluble guanylyl cyclase expressed in a baculovirus/Sf9 system: Stimulation by YC-1, nitric oxide, and carbon oxide”, J. Mol. Med. 77 (1999), 14-23. Haem-free guanylate cyclase is obtained by adding Tween 20 to the sample buffer (final concentration 0.5%).
(§2) Activation of sGC by a test substance is stated as x-fold stimulation of basal activity.

[2] = molecular target: T2, recombinant guanylate cyclase reporter cell line (sGC, CHO reporter cell) (Rattus norvegicus, UniProt P20595); assay: Effect on a recombinant guanylate cyclase reporter cell line (CHO reporter cell); format: cell-based
T2 construct: expressed in transfected cells; host or cells: CHO reporter cell line
T2 sequence (P20595 1-619): T1 sequence (P20595 1-619)
T2 sequence (P19686 1-690 partner): T1 sequence (P19686 1-690 partner)
Description: B-2. Effect on a Recombinant Guanylate Cyclase Reporter Cell Line The cellular activity of the compounds according to the invention is determined using a recombinant guanylate cyclase reporter cell line, as described in F. Wunder et al., Anal. Biochem. 339, 104-112 (2005).

[3] = molecular target: T3, soluble guanylate cyclase (sGC) (Rattus norvegicus, UniProt P20595); assay: Stimulation of sGC enzyme activity (PPi detection, luciferase luminescence); format: biochemical
T3 construct: made in house
T3 sequence (P20595 1-619): T1 sequence (P20595 1-619)
T3 sequence (P19686 1-690 partner): T1 sequence (P19686 1-690 partner)
Description: B-3. Stimulation of sGC Enzyme Activity
Soluble guanylate cyclase (sGC) converts on stimulation GTP into cGMP and pyrophosphate (PPi). PPi is detected with the aid of the assay described below. The signal produced in the assay increases as the reaction progresses and serves as a measure of the sGC enzyme activity under the given stimulation.
To carry out the assay, 29 μl of enzyme solution [0-10 nM soluble guanylate cyclase (prepared according to Hönicka et al., J. Mol. Med. 77, 14-23 (1999)) in 50 mM TEA, 2 mM MgCl2, 0.1% BSA (fraction V), 0.005% Brij®, pH 7.5] are initially introduced into a microplate, and 1 μl of the substance to be tested (as a serially diluted solution in DMSO) is added. The mixture is incubated at room temperature for 10 min. Then 20 μl of detection mix [1.2 nM Firefly Luciferase (Photinus pyralis luciferase, Promega), 29 μM dehydroluciferin (prepared according to Bitler & McElroy, Arch. Biochem. Biophys. 72, 358 (1957)), 122 μM luciferin (Promega), 153 μM ATP (Sigma) and 0.4 mM DTT (Sigma) in 50 mM TEA, 2 mM MgCl2, 0.1% BSA (fraction V), 0.005% Brij®, pH 7.5] are added. The enzyme reaction is started by adding 20 μl of substrate solution [1.25 mM guanosine 5′-triphosphate (Sigma) in 50 mM TEA, 2 mM MgCl2, 0.1% BSA (fraction V), 0.005% Brij®, pH 7.5] and measured continuously in a luminometer. The extent of the stimulation by the substance to be tested can be determined relative to the signal of the unstimulated reaction.
The activation of haem-free guanylate cyclase is examined by addition of 25 μM of 1H-1,2,4-oxadiazolo[4,3-a]quinoxalin-1-one (ODQ) to the enzyme solution and subsequent incubation for 30 minutes and compared to the stimulation of the native enzyme.

[4] = molecular target: T4, recombinant soluble guanylate cyclase (sGC), haem-free (Rattus norvegicus, UniProt P20595); assay: Stimulation of recombinant soluble guanylate cyclase (sGC) in vitro, haem-free enzyme; format: biochemical; settings: n = 2
T4 construct: made in house
T4 sequence (P20595 1-619): T1 sequence (P20595 1-619)
T4 sequence (P19686 1-690 partner): T1 sequence (P19686 1-690 partner)
Description: as §1
The investigations on the stimulation of recombinant soluble guanylate cyclase (sGC) by the compounds according to the invention with and without sodium nitroprusside and with and without the haem-dependent sGC inhibitor 1H-1,2,4-oxadiazolo[4,3-a]quinoxalin-1-one (ODQ) are carried out by the method described in detail in the following literature reference: M. Hoenicka, E. M. Becker, H. Apeler, T. Sirichoke, H. Schroeder, R. Gerzer and J.-P. Stasch, “Purified soluble guanylyl cyclase expressed in a baculovirus/Sf9 system: Stimulation by YC-1, nitric oxide, and carbon oxide”, J. Mol. Med. 77 (1999), 14-23. Haem-free guanylate cyclase is obtained by adding Tween 20 to the sample buffer (final concentration 0.5%).
as §2

Compound: C[C@H]([C@H](C(=O)Nc1cc(CC2(C(=O)O)CC2)ccc1Cl)N1CCC2(CC1)CC2)C(F)(F)F [Example 25, 1-(3-{[(2R,3R)-2-(6-Azaspiro[2.5]oct-6-yl)-4,4,4-trifluoro-3-methylbutanoyl]amino}-4-chlorobenzyl)cyclopropanecarboxylic acid]
- Stimulation (x-times) of haem-containing sGC, +0.01 μM DEA/NO ([1]; 0.01 μM Example 25 + 0.01 μM DEA/NO): 11.4 ± 3.9 x-times
- Stimulation (x-times) of haem-containing sGC, +10 μM ODQ ([1]; 0.01 μM Example 25 + 10 μM ODQ): 2.3 ± 0.1 x-times
- Stimulation (x-times) of haem-containing sGC, Basal ([1]; 0.01 μM Example 25): 0.9 ± 0.2 x-times
- Stimulation (x-times) of haem-containing sGC, +0.01 μM DEA/NO ([1]; 0.1 μM Example 25 + 0.01 μM DEA/NO): 11.9 ± 4.2 x-times
- Stimulation (x-times) of haem-containing sGC, +10 μM ODQ ([1]; 0.1 μM Example 25 + 10 μM ODQ): 2.7 ± 0.2 x-times
- Stimulation (x-times) of haem-containing sGC, Basal ([1]; 0.1 μM Example 25): 0.9 ± 0.0 x-times
- Stimulation (x-times) of haem-containing sGC, +0.01 μM DEA/NO ([1]; 1.0 μM Example 25 + 0.01 μM DEA/NO): 12.0 ± 3.9 x-times
- Stimulation (x-times) of haem-containing sGC, +10 μM ODQ ([1]; 1.0 μM Example 25 + 10 μM ODQ): 10.5 ± 2.4 x-times
- Stimulation (x-times) of haem-containing sGC, Basal ([1]; 1.0 μM Example 25): 2.8 ± 0.4 x-times
- Stimulation (x-times) of haem-containing sGC, +0.01 μM DEA/NO ([1]; 10 μM Example 25 + 0.01 μM DEA/NO): 15.1 ± 2.9 x-times
- Stimulation (x-times) of haem-containing sGC, +10 μM ODQ ([1]; 10 μM Example 25 + 10 μM ODQ): 32.5 ± 5.4 x-times
- Stimulation (x-times) of haem-containing sGC, Basal ([1]; 10 μM Example 25): 8.6 ± 0.2 x-times
- Effect of combination with the NO donor DEA/NO on sGC stimulation ([1]; combination with DEA/NO, haem-containing sGC): no synergistic effect
- Effect of the haem-dependent sGC inhibitor ODQ on the activity of the sGC activator ([1]; with ODQ, haem-containing sGC): not blocked but, in contrast, even enhanced
- MEC (minimum effective concentration), sGC-activating activity in the CHO reporter cell in vitro [2]: 1 nM
- MEC (minimum effective concentration), activating action at the sGC enzyme in vitro [3]: 2.2 nM
- EC50 ([3]; read-out: EC50 (half-maximal effective concentration), activating action at the sGC enzyme in vitro): 15 nM
- Stimulation (x-times) of haem-free sGC, Basal ([4]; 0.01 μM Example 25): 1.9 ± 0.8 x-times
- Stimulation (x-times) of haem-free sGC, Basal ([4]; 0.1 μM Example 25): 2.4 ± 0.8 x-times
- Stimulation (x-times) of haem-free sGC, Basal ([4]; 1.0 μM Example 25): 7.3 ± 3.6 x-times
- Stimulation (x-times) of haem-free sGC, Basal ([4]; 10 μM Example 25): 26.6 ± 7.3 x-times

— patent publication US9309198B2, “N-[3-(2-carboxyethyl)phenyl]piperidin-1-ylacetamide derivatives and use thereof as activators of soluble guanylate cyclase” (Bayer Pharma Aktiengesellschaft, priority 2012, dated 2016)
